Measurements published in US20220378043A1, “BIOFILM TREATMENT AGENT AND BIOFILM TREATMENT METHOD” (SEIKO PMC CORPORATION, priority 2019, published 2022).
In brackets after ≈: the same amount, converted by molar mass. Where two headings read alike, the source gives them in different places. Residues, ends and D or L forms follow the SMILES beside them.

Experiments:
[1] = system: Pseudomonas aeruginosa (deposit number: NBRC106052 strain); assay: Minimum inhibitory concentration (MIC) test; assay type: cell-based
Procedure: A compound (hereinafter, sometimes referred to as a substance to be evaluated) that is a component of a biofilm treatment agent is diluted stepwise with a bouillon medium for testing susceptibility to prepare a total amount of 10 mL of dilution series (with the proviso of being 1.1 times the target concentration). 20 μL of a bacterial suspension which has been prepared such that there is 10^8 cfu/mL of Pseudomonas aeruginosa (deposit number: NBRC106052 strain) which is a representative strain of biofilm-forming bacteria as a test bacterial strain is added thereto and subjected to shaking culture (2000 rpm) with a 96-well microplate mixer at 37° C. for 24 hours. The lowest concentration in the dilution series which is not visually turbid is regarded as the MIC.
Pseudomonad (gram-negative bacterium) known as a model bacterium forming a biofilm was used as a test bacterium to MIC's of compounds (hereinafter, substances to be evaluated) that are components of a biofilm treatment agent.
(1) Test Bacterium Pseudomonas aeruginosa (Deposit Number: NBRC106052 Strain)
Each substance to be evaluated was diluted stepwise with a bouillon medium for testing susceptibility to prepare a total amount of 10 mL of dilution series (with the proviso of being 1.1 times the target concentration). 20 μL of a bacterial suspension which had been prepared such that there was 10^8 cfu/mL of a test bacterial strain was added thereto and subjected to shaking culture (2000 rpm) with a 96-well microplate mixer at 37° C. for 24 hours. The lowest concentration in the dilution series which was not visually turbid was regarded as the MIC.

[2] = system: Pseudomonas aeruginosa (deposit number: NBRC106052 strain) biofilm; assay: Evaluation of biofilm-removing effect (crystal violet staining of pre-formed biofilm); assay type: cell-based; settings: Table 4: anthranilic acid analog and/or biosurfactant or synthetic surfactant, each at Table 2 concentration, pH 7.0, 3.5 hours contact
From the text: In the present invention, the biofilm-removing effect is an action of removing biofilms formed by bacteria. Examples of methods for evaluating an effect of removing substances to be evaluated include a method for comparing the amount of biofilm formed after bringing the substance to be evaluated into contact with a biofilm formed through culturing bacteria for a certain period of time with the amount of biofilm (control) formed after the elapse of a certain period of time without the biofilm being brought into contact with the substance to be evaluated. In this case, when the amount of biofilm formed is smaller than that of the control, it can be determined that the substance to be evaluated has a biofilm-removing effect.
(i) A triptic soy broth (TBS, Bacto: manufactured by Difco Laboratories) medium having a final concentration of glucose of 1% is used for Pseudomonas aeruginosa (deposit number: NBRC106052 strain) which is a representative strain of biofilm-forming bacteria to prepare a preculture solution under the condition of 120 rpm.
(ii) The preculture solution of which the turbidity (OD) is adjusted to 0.1 is diluted with a TSB medium so that the final concentration is 0.000005% (v/v), and 2 mL of the diluent is dispensed into a 12-well plate. Here, the following OD (turbidity) is a value which is measured with a spectrophotometer (iMark Microplate Reader: manufactured by Bio-Rad Laboratories, Inc.) at a wavelength of 630 nm in which distilled water is used as a blank.
(iii) Culture is performed under the conditions of 37° C. and 130 rpm for 17 hours to form a biofilm.
(iv) The culture solution in each well is removed and each well is rinsed twice with distilled water.
(v) A substance to be evaluated is added to a medium at an appropriate concentration less than the MIC of the target substance, and the pH of the medium is adjusted to 7.0 with hydrochloric acid or sodium hydroxide. 2 mL of a sterile medium (pH=7.0) is added to each well to be used as a negative control.
(vi) Each well is shaken at the same temperature as that of the preculture for 3.5 hours at 130 rpm, the biofilm is brought into contact with the medium containing the substance to be evaluated, and then, the medium in each well is removed, and each well is rinsed twice with distilled water.
(vii) 2 mL of an aqueous crystal violet solution (0.4 w/v %, 20 w/v % methanol) is added to the biofilm adhering in each well, allowed to stand for 2 minutes, and allowed to stain, and then, the stained biofilm is rinsed three times with distilled water, and the aqueous crystal violet solution which has not been bound to the biofilm is removed.
(viii) 2 mL of ethanol is added to each well and allowed to stand for 1 hour to elute crystal violet from the stained biofilm, and the absorbance is measured. Here, the following absorbance is a value which is measured with a spectrophotometer (iMark Microplate Reader: manufactured by Bio-Rad Laboratories, Inc.) at a wavelength of 595 nm in which distilled water is used as a blank.
(ix) Regarding the absorbance of the negative control and each substance to be evaluated, absorbances measured for 4 wells are taken as an average value, and the removal rate of each biofilm is calculated from the following calculation equation.
Biofilm removal rate (%)={1-(absorbance of substance to be evaluated/absorbance of negative control)}×100
The biofilm-removing effect and the biofilm formation-inhibiting effect of each of the substances to be evaluated shown in Table 1 were confirmed according to the evaluation methods specified in the present invention using each biofilm treatment agent containing each substance to be evaluated as a biofilm treatment agent component. In addition, evaluation results of the biofilm-removing effect and the biofilm formation-inhibiting effect of each aromatic monohydric alcohol alone are shown in […]

[3] = bouillon medium, 37° C., 24 hours, lowest concentration not visually turbid
[4] = Pseudomonas aeruginosa, NBRC106052, bouillon medium, 37° C., 24 hours, lowest concentration not visually turbid, read-out: MIC
[5] = Pseudomonas aeruginosa, NBRC106052, 24 h

Compound	MIC [1, 4] [µg/mL]	MIC [1, 5] [µg/mL]	Removal results (removal rate %) [2] [%]	other results
polyoxyethylene lauryl ether [POELE]				MIC [1, 3]: >2,000 ppm
OCCc1ccccc1 [Example 3, 2-Phenylethanol]	5000 (≈ 40.9 mM)			
CC(O)c1ccccc1 (stereo not drawn) [Example 2, 1-Phenylethanol]		5000 (≈ 40.9 mM)		
CCCCCCCCCCCCOS(=O)(=O)[O-].[Na+] [SDS, sodium dodecyl sulfate]	2000			
N#CC(Br)(Br)C(N)=O [compound 4, 2,2-dibromo-3-nitrilopropionamide]	19.5 (≈ 0.0806 mM)			
Sophorolipid [Comparative Example 10]			36	MIC [1, 3]: >10,000 ppm
CCCCCO [Comparative Example 1, 1-Pentanol]	> 5000			
OCCCOc1ccccc1 [Example 5, 3-Phenoxy-1-propanol]		2500 (≈ 16.4 mM)		
Rhamnolipid [Comparative Example 8]			24	MIC [1, 3]: >10,000 ppm
OCC(O)COc1ccccc1 (stereo not drawn) [compound 3, 3-Phenoxy-1,2-propanediol]		> 5000		
Nc1ccccc1C(=O)O [Comparative Example 7, Anthranilic acid]		10000 (≈ 72.9 mM)	20	
OCc1ccccc1 [Example 1, 1-Phenylmethanol]	2500 (≈ 23.1 mM)			
OCCOc1ccccc1 [Example 4, 2-Phenoxyethanol]		2500 (≈ 18.1 mM)		
COC(=O)c1ccccc1N [Comparative Example 6, Methyl anthranilate]		1250 (≈ 8.27 mM)	33	
NC(=O)c1ccccc1N [Comparative Example 5, Anthranylamide]			25	MIC [1, 3]: 5,000 ppm
OCC=Cc1ccccc1 [Example 6, Cinnamyl alcohol]	2500 (≈ 18.6 mM)			
CC(C)CCCCCCCCC[C@@H]1CC(=O)N[C@@H](CCC(=O)O)C(=O)N[C@@H](CC(C)C)C(=O)N[C@H](CC(C)C)C(=O)N[C@@H](C(C)C)C(=O)N[C@@H](CC(=O)O)C(=O)N[C@H](CC(C)C)C(=O)N[C@@H](CC(C)C)C(=O)O1 [Comparative Example 9, Surfactin] (HELM PEPTIDE1{E.L.[dL].V.D.[dL].L}|CHEM1{[CC(C)CCCCCCCCC[C@H](CC(=O)[*:1])O[*:2]]}$PEPTIDE1,CHEM1,1:R1-1:R1|PEPTIDE1,CHEM1,7:R2-1:R2$$$V2.0)	10000 (≈ 9.65 mM)		24	
OCC(CO)c1ccccc1 [compound 2, 2-Phenyl-1,3-propanediol]	> 5000			
